Source: PMC12472888 (Molecules, 2025)

Experiments:
Assay type in all cases: biochemical
human recombinant COX-2 = target: T1, human recombinant COX-2 (Homo sapiens, UniProt P35354); test: Cayman COX inhibitor screening kit, prostanoid enzyme immunoassay
T1 construct: gene PTGS2; homodimer; docking used mouse COX-2 (not this entry)
T1 sequence (P35354 18-604): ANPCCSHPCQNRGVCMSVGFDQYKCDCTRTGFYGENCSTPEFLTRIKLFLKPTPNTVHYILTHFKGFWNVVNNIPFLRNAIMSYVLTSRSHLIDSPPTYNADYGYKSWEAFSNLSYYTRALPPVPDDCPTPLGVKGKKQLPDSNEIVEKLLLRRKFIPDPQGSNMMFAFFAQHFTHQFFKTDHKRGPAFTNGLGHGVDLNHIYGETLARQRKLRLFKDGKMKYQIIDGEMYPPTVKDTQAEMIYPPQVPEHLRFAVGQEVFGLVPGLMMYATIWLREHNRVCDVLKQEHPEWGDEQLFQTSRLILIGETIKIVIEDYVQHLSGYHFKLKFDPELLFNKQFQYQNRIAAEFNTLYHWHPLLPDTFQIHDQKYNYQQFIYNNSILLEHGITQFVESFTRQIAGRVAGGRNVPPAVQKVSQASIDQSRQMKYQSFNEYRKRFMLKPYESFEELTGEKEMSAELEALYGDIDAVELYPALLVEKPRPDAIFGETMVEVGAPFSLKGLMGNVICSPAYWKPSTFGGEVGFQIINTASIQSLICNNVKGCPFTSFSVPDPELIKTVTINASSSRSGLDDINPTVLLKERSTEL
From the text: Cayman COX inhibitor screening kit, prostanoid enzyme immunoassay on human recombinant COX-2

[1] = target: T2, lipoxygenase type I-B from soybean (Glycine max, UniProt P08170); test: UV absorbance at […] nm, linoleate oxidation
T2 construct: gene LOX1.1; commercial native soybean enzyme (Sigma type I-B), full length
T2 sequence (P08170 1-839): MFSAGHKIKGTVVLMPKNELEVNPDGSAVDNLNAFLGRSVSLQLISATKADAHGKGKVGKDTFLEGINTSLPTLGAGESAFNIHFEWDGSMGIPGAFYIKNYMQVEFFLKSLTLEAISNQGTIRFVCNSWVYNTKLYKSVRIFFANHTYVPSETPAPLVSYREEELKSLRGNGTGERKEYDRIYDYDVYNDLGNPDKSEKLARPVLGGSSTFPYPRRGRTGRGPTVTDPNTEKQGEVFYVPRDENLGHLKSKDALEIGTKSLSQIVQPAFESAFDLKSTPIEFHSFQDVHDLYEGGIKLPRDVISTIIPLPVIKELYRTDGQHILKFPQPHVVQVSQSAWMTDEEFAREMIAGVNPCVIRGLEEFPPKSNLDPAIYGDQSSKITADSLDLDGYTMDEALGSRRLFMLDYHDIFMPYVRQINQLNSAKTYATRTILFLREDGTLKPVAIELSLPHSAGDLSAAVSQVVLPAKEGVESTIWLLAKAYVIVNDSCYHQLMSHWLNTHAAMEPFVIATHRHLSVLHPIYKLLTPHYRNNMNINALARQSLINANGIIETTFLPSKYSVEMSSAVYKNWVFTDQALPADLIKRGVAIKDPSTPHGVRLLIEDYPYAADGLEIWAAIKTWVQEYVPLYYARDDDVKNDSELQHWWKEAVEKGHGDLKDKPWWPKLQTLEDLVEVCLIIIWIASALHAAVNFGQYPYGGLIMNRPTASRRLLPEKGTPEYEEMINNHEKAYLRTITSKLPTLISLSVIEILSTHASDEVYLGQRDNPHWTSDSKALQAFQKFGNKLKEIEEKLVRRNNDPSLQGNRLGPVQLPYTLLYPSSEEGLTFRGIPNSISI

ovine COX-1 = target: T3, ovine COX-1 (Ovis aries, UniProt P05979); test: Cayman COX inhibitor screening kit, prostanoid enzyme immunoassay
T3 construct: gene PTGS1; homodimer
T3 sequence (P05979 25-600): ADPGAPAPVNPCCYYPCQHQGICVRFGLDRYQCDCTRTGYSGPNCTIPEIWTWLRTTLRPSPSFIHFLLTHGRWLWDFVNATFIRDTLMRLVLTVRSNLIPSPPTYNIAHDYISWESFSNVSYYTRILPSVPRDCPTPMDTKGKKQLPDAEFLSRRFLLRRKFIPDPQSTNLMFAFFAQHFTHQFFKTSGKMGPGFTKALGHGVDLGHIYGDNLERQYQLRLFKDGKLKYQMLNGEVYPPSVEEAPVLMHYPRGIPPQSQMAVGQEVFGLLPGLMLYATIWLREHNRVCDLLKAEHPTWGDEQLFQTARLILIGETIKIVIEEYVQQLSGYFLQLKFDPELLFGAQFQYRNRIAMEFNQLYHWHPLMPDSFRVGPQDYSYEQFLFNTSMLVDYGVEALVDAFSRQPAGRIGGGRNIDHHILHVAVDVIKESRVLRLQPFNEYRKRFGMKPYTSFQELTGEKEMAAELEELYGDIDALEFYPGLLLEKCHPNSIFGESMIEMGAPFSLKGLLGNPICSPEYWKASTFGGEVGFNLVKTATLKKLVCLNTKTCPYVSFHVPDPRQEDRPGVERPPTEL
From the text: Cayman COX inhibitor screening kit, prostanoid enzyme immunoassay on ovine COX-1

SMILES | inhibition at 0.05 µM (human recombinant COX-2) | IC50 [1] | inhibition at 0.05 µM (ovine COX-1)
CC(C)Cc1ccc(C(C)C(=O)NCCC(=O)OCCO[N+](=O)[O-])cc1 (racemic) [compound 5, 2-(Nitrooxy)ethyl-3-(2-(4-isobutylphenyl)propanamido)propanoate] | 95% | 78 µM | 67%
COc1ccc2cc([C@H](C)C(=O)NCCC(=O)OCCO)ccc2c1 [compound 9, 2-Hydroxyethyl 3-(2-(6-methoxynaphthalen-2-yl)propanamido)propanoate] | – | – | 73%
CC(C)Cc1ccc(C(C)C(=O)N2CCC[C@H]2C(=O)OCCO[N+](=O)[O-])cc1 (stereo partly shown) [compound 6, 2-(Nitrooxy)ethyl-1-(2-(4-isobutylphenyl)propanoyl)pyrrolidine-2-carboxylate] | – | 264 µM | –
COc1ccc2cc([C@H](C)C(=O)N3CCC[C@H]3C(=O)OCCO[N+](=O)[O-])ccc2c1 [compound 8, 2-(Nitrooxy)ethyl-1-(2-(6-methoxynaphthalen-2-yl)propanoyl)pyrrolidine-2-carboxylate] | – | 184 µM | –
COc1ccc2cc([C@H](C)C(=O)NCCC(=O)OCCO[N+](=O)[O-])ccc2c1 [compound 7, 2-(Nitrooxy)ethyl-3-(2-(6-methoxynaphthalen-2-yl)propanamido)propanoate] | – | 51 µM | –
